From US20240116985A1, “STAPLED PEPTIDES AND METHODS THEREOF” (priority 2020, published 2024)
pIC50: −log10 of the molar value.

Biological target: T1, full-length beta-Catenin (Uniprot ID P35222) (Homo sapiens, UniProt P35222)
T1 construct: 10 nM full-length beta-Catenin (Uniprot ID P35222)
T1 sequence (P35222 1-781): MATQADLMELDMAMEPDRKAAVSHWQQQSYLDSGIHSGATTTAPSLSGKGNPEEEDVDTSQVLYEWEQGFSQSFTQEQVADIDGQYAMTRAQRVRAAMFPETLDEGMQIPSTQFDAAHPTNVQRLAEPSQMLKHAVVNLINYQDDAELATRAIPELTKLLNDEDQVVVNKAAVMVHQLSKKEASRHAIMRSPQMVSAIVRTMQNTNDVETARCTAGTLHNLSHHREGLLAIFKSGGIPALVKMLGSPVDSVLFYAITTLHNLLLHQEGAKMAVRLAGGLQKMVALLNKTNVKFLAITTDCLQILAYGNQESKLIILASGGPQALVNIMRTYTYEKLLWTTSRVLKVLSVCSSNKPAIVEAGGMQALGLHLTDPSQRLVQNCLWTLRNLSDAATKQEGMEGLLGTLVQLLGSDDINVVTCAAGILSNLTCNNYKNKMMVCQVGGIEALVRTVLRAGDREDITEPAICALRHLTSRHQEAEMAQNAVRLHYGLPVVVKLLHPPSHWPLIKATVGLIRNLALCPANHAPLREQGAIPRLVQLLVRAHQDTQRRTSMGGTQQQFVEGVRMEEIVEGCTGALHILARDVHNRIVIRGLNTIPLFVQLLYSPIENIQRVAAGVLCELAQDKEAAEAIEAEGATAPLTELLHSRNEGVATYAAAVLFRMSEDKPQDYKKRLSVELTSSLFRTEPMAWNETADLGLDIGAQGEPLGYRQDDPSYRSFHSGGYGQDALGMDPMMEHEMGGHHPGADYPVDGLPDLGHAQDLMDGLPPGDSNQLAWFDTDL
Test: Fluorescence polarization IC50 (beta-catenin / 5FAM-TCF4 10-53 competition)
Format: binding
Conditions: fluorescence polarization; read-out: beta-Catenin FP IC50

SMILES | pIC50
CCCC[C@@H]1NC(=O)[C@H](Cc2ccccc2)NC(=O)[C@H](C)NC(=O)C(C)(C)NC(=O)[C@H](Cc2cccc(C(=O)O)c2)NC(=O)[C@H](CC(=O)O)NC(=O)C2(CCCC=CCCCOC(=O)N3CC[C@@](C(=O)N[C@@H](Cc4ccsc4)C(=O)N[C@@H](Cc4csc5ccccc45)C(=O)N[C@@H](CCC(=O)N4CCC(N5CCCCC5)CC4)C(N)=O)(C3)NC1=O)CCCC=CC[C@]1(CCCN1C(C)=O)C(=O)N[C@@H](CC(=O)O)C(=O)N[C@@H](CC(C)(C)C)C(=O)N2 (stereo partly drawn) [I-2555, Ac-PL3-Asp-Npg-B5-Asp-3COOHF-Aib-Ala-Phe-nLeu-PyrS2-3Thi-BztA-[4Pippip]GlnR-NH2] | 7.96
CC(=O)N[C@]12CCN(C1)C(=O)OCC=CCCCC1(CCCC=CCCCOC(=O)N3CC[C@@](C(=O)N[C@@H](Cc4ccccc4C(F)(F)F)C(=O)N[C@@H](Cc4csc5ccccc45)C(=O)N[C@@H](CCC(N)=O)C(N)=O)(C3)NC(=O)[C@H](CC(C)C)NC(=O)[C@H](Cc3ccccc3)NC(=O)[C@H](C)NC(=O)[C@H](C)NC(=O)[C@H](Cc3cccc(C(=O)O)c3)NC(=O)[C@H](CC(=O)O)NC1=O)NC(=O)[C@H](CC(C)(C)C)NC(=O)[C@H](CC(=O)O)NC(=O)[C@H](C)NC2=O (stereo partly drawn) [I-2568, Ac-PyrR-Ala-Asp-Npg-B5-Asp-3COOHF-Ala-Ala-Phe-Leu-PyrS2-2F3MeF-BztA-Gln-NH2] | 5.32
CC(=O)N[C@]12CCN(C1)C(=O)OCC=CCCCC1(CCCC=CCCCOC(=O)N3CC[C@@](C(=O)N[C@@H](Cc4ccccc4C(F)(F)F)C(=O)N[C@@H](Cc4csc5ccccc45)C(=O)N[C@@H](CCC(N)=O)C(N)=O)(C3)NC(=O)[C@H](CC(C)C)NC(=O)[C@H](Cc3ccccc3)NC(=O)[C@H](C)NC(=O)[C@H](C)NC(=O)[C@H](Cc3cccc(C(=O)O)c3)NC(=O)[C@H](CC(=O)O)NC1=O)NC(=O)[C@H](CC(C)(C)C)NC(=O)[C@H](CC(=O)O)NC(=O)[C@H](CCC(=O)O)NC2=O (stereo partly drawn) [I-2569, Ac-PyrR-Glu-Asp-Npg-B5-Asp-3COOHF-Ala-Ala-Phe-Leu-PyrS2-2F3MeF-BztA-Gln-NH2] | 5.71
CC(=O)N[C@]1(C)CCCCCCCCC2(CCCCCCCCOC(=O)N3CC[C@@](C(=O)N[C@@H](Cc4ccccc4C(F)(F)F)C(=O)N[C@@H](Cc4csc5ccccc45)C(=O)N[C@@H](CCC(N)=O)C(N)=O)(C3)NC(=O)[C@H](CC(C)C)NC(=O)[C@H](Cc3ccccc3)NC(=O)[C@H](C)NC(=O)[C@H](C)NC(=O)[C@H](Cc3cccc(C(=O)O)c3)NC(=O)[C@H](CC(=O)O)NC2=O)NC(=O)[C@H](CC(C)(C)C)NC(=O)[C@H](CC(=O)O)NC(=O)[C@H](C)NC1=O (stereo partly drawn) [I-2574, Ac-R5-Ala-Asp-Npg-B5-Asp-3COOHF-Ala-Ala-Phe-Leu-PyrS2-2F3MeF-BztA-Gln-NH2] | 5.53
CC(=O)N1CCC[C@H]1C(=O)N[C@]1(C)CCCC=CCCCC2(CCCC=CCCCOC(=O)N3CC[C@@](C(=O)N[C@@H](Cc4ccccc4C(F)(F)F)C(=O)N[C@@H](Cc4csc5ccccc45)C(=O)N[C@@H](CCC(N)=O)C(N)=O)(C3)NC(=O)[C@H](CC(C)C)NC(=O)[C@H](Cc3ccccc3)NC(=O)[C@H](C)NC(=O)[C@H](C)NC(=O)[C@H](Cc3cccc(C(=O)O)c3)NC(=O)[C@H](CC(=O)O)NC2=O)NC(=O)[C@H](CC(C)(C)C)NC(=O)[C@H](CC(=O)O)NC(=O)[C@H](CCC(=O)O)NC1=O (stereo partly drawn) [I-2575, Ac-Pro-R5-Glu-Asp-Npg-B5-Asp-3COOHF-Ala-Ala-Phe-Leu-PyrS2-2F3MeF-BztA-Gln-NH2] | 5.09
CC(=O)N1CCC[C@]12CC=CCCCC1(CCCC=CCCOC(=O)N3CCC(C(=O)N[C@@H](Cc4ccccc4C(F)(F)F)C(=O)N[C@@H](Cc4csc5ccccc45)C(=O)N[C@@H](C)C(N)=O)(CC3)NC(=O)[C@H](CC(C)C)NC(=O)[C@H](Cc3ccccc3)NC(=O)[C@H](C)NC(=O)[C@H](CCC(N)=O)NC(=O)[C@H](Cc3cccc(C(=O)O)c3)NC(=O)[C@H](CC(=O)O)NC1=O)NC(=O)[C@H](CC(C)(C)C)NC(=O)[C@H](CC(=O)O)NC2=O (stereo partly drawn) [I-2584, Ac-PL3-Asp-Npg-B5-Asp-3COOHF-Gln-Ala-Phe-Leu-SPip1-2F3MeF-BztA-Ala-NH2] | 5.74

More lines, now with the values ahead:

pIC50 | SMILES
5.76 | CC(=O)N1Cc2cccc(c2)OCC=CCCCC2(CCCC=CCCCOC(=O)N3CC[C@@](C(=O)N[C@@H](Cc4ccsc4)C(=O)N[C@@H](Cc4csc5ccccc45)C(=O)N[C@@H](CCC(N)=O)C(N)=O)(C3)NC(=O)[C@H](CC(C)C)NC(=O)[C@H](Cc3ccccc3)NC(=O)[C@H](C)NC(=O)[C@H](C)NC(=O)[C@H](CN(CC(=O)O)CC(F)(F)F)NC(=O)[C@H](CC(=O)O)NC2=O)NC(=O)[C@H](CC(C)(C)C)NC(=O)[C@@H]1CC(=O)O (stereo partly drawn) [I-2550, Bn3OAllyl-AcAsp-Npg-B5-Asp-TfeGA-Ala-Ala-Phe-Leu-PyrS2-3Thi-BztA-Gln-NH2]
6.59 | CC(=O)N[C@]1(C)CCCC=CCCCC2(CCCC=CCCCOC(=O)N3CC[C@@](C(=O)N[C@@H](Cc4ccccc4C(F)(F)F)C(=O)N[C@@H](Cc4csc5ccccc45)C(=O)N[C@@H](CCC(N)=O)C(N)=O)(C3)NC(=O)[C@H](CC(C)C)NC(=O)[C@H](Cc3ccccc3)NC(=O)[C@H](C)NC(=O)[C@H](C)NC(=O)[C@H](Cc3cccc(C(=O)O)c3)NC(=O)[C@H](CC(=O)O)NC2=O)NC(=O)[C@H](CC(C)(C)C)NC(=O)[C@H](CC(=O)O)NC1=O (stereo partly drawn) [I-2564, Ac-R5-Asp-Npg-B5-Asp-3COOHF-Ala-Ala-Phe-Leu-PyrS2-2F3MeF-BztA-Gln-NH2]
6.74 | CC(=O)N1CCC[C@H]1C(=O)N[C@]1(C)CC=CCCCC2(CCCC=CCCCOC(=O)N3CC[C@@](C(=O)N[C@@H](Cc4ccccc4C(F)(F)F)C(=O)N[C@@H](Cc4csc5ccccc45)C(=O)N[C@@H](CCC(N)=O)C(N)=O)(C3)NC(=O)[C@H](CC(C)C)NC(=O)[C@H](Cc3ccccc3)NC(=O)[C@H](C)NC(=O)[C@H](C)NC(=O)[C@H](Cc3cccc(C(=O)O)c3)NC(=O)[C@H](CC(=O)O)NC2=O)NC(=O)[C@H](CC(C)(C)C)NC(=O)[C@H](CC(=O)O)NC1=O (stereo partly drawn) [I-2566, Ac-Pro-R3-Asp-Npg-B5-Asp-3COOHF-Ala-Ala-Phe-Leu-PyrS2-2F3MeF-BztA-Gln-NH2]
6.28 | CC(=O)N1CCC[C@H]1C(=O)N[C@]1(C)CCCC=CCCCC2(CCCC=CCCCOC(=O)N3CC[C@@](C(=O)N[C@@H](Cc4ccccc4C(F)(F)F)C(=O)N[C@@H](Cc4csc5ccccc45)C(=O)N[C@@H](CCC(N)=O)C(N)=O)(C3)NC(=O)[C@H](CC(C)C)NC(=O)[C@H](Cc3ccccc3)NC(=O)[C@H](C)NC(=O)[C@H](C)NC(=O)[C@H](Cc3cccc(C(=O)O)c3)NC(=O)[C@H](CC(=O)O)NC2=O)NC(=O)[C@H](CC(C)(C)C)NC(=O)[C@H](CC(=O)O)NC1=O (stereo partly drawn) [I-2567, Ac-Pro-R5-Asp-Npg-B5-Asp-3COOHF-Ala-Ala-Phe-Leu-PyrS2-2F3MeF-BztA-Gln-NH2]
5.89 | CC(=O)N[C@]1(C)CCCCCCC2(CCCCCCCCOC(=O)N3CC[C@@](C(=O)N[C@@H](Cc4ccccc4C(F)(F)F)C(=O)N[C@@H](Cc4csc5ccccc45)C(=O)N[C@@H](CCC(N)=O)C(N)=O)(C3)NC(=O)[C@H](CC(C)C)NC(=O)[C@H](Cc3ccccc3)NC(=O)[C@H](C)NC(=O)[C@H](C)NC(=O)[C@H](Cc3cccc(C(=O)O)c3)NC(=O)[C@H](CC(=O)O)NC2=O)NC(=O)[C@H](CC(C)(C)C)NC(=O)[C@H](CC(=O)O)NC1=O (stereo partly drawn) [I-2570, Ac-R3-Asp-Npg-B5-Asp-3COOHF-Ala-Ala-Phe-Leu-PyrS2-2F3MeF-BztA-Gln-NH2]
6.63 | CC(=O)N1CCC[C@H]1C(=O)N[C@]1(C)CCCCCCCCC2(CCCCCCCCOC(=O)N3CC[C@@](C(=O)N[C@@H](Cc4ccccc4C(F)(F)F)C(=O)N[C@@H](Cc4csc5ccccc45)C(=O)N[C@@H](CCC(N)=O)C(N)=O)(C3)NC(=O)[C@H](CC(C)C)NC(=O)[C@H](Cc3ccccc3)NC(=O)[C@H](C)NC(=O)[C@H](C)NC(=O)[C@H](Cc3cccc(C(=O)O)c3)NC(=O)[C@H](CC(=O)O)NC2=O)NC(=O)[C@H](CC(C)(C)C)NC(=O)[C@H](CC(=O)O)NC1=O (stereo partly drawn) [I-2573, Ac-Pro-R5-Asp-Npg-B5-Asp-3COOHF-Ala-Ala-Phe-Leu-PyrS2-2F3MeF-BztA-Gln-NH2]
6.00 | CC(=O)N1CCC[C@]12CC=CCCCC1(CCCC=CCCOC(=O)N3CCC(C(=O)N[C@@H](Cc4ccccc4C(F)(F)F)C(=O)N[C@@H](Cc4csc5ccccc45)C(=O)N[C@@H](CCC(N)=O)C(N)=O)(CC3)NC(=O)[C@H](CC(C)C)NC(=O)[C@H](Cc3ccccc3)NC(=O)[C@H](C)NC(=O)[C@H](C)NC(=O)[C@H](Cc3cccc(C(=O)O)c3)NC(=O)[C@H](CC(=O)O)NC1=O)NC(=O)[C@H](CC(C)(C)C)NC(=O)[C@H](CC(=O)O)NC2=O (stereo partly drawn) [I-2580, Ac-PL3-Asp-Npg-B5-Asp-3COOHF-Ala-Ala-Phe-Leu-SPip1-2F3MeF-BztA-Gln-NH2]
6.34 | CC(=O)N1CCC[C@]12CC=CCCCC1(CCCC=CCCCOC(=O)N3CCC(C(=O)N[C@@H](Cc4ccccc4C(F)(F)F)C(=O)N[C@@H](Cc4csc5ccccc45)C(=O)N[C@@H](C)C(N)=O)(CC3)NC(=O)[C@H](CC(C)C)NC(=O)[C@H](Cc3ccccc3)NC(=O)[C@H](C)NC(=O)[C@H](CCC(N)=O)NC(=O)[C@H](Cc3cccc(C(=O)O)c3)NC(=O)[C@H](CC(=O)O)NC1=O)NC(=O)[C@H](CC(C)(C)C)NC(=O)[C@H](CC(=O)O)NC2=O (stereo partly drawn) [I-2585, Ac-PL3-Asp-Npg-B5-Asp-3COOHF-Gln-Ala-Phe-Leu-SPip2-2F3MeF-BztA-Ala-NH2]
